The Ki is the dissociation constant of the complex between target and ligand, obtained from inhibition or displacement.

We go through five compounds from US12559529B2, “NPY2 receptor agonists” (Boehringer Ingelheim International GmbH, priority 2019, dated 2026).

*1 amine or outer side, *2 acyl side, *3 side chain or, on linkers, in order; H or OH if unused. Where a SMILES comes first, the peptide text is derived from it. Side-chain parts run from the residue outwards. The star is where a group is joined. C18 diacid = O=C(O)CCCCCCCCCCCCCCCCC(=O)*; γGlu = O=C(O)[C@H](CCC(=O)[*:2])N[*:1]; Isovaleryl = CC(C)CC(=O)*; AEEA = NCCOCCOCC(=O)O

Assay [1] has as its target T1, Human Neuropeptide Y2 Receptor (Homo sapiens, UniProt P49146).
T1 construct: purchased CHEMICON HTS066M
T1 sequence (P49146 1-381): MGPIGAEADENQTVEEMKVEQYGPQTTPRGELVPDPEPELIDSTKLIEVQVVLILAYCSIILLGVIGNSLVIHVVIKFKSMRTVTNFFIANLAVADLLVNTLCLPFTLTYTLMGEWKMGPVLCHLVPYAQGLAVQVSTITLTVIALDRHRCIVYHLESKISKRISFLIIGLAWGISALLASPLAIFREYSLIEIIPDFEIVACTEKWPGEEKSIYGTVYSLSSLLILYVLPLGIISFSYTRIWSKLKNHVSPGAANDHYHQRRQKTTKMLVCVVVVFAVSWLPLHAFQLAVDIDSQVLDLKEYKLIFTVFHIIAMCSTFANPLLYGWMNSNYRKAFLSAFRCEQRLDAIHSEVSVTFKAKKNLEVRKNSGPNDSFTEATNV
As to the kind of experiment: Radioligand binding competition assay (RLB). The conditions noted are these: Table 3; human 125I-PYY (1-36) 0.02 nM, Y2 receptor membranes; read-out: Ki. A digest of the protocol:
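Membranes from cells expressing human Y2 receptor (0.5 μg protein/well) were incubated with radioligand and serially diluted peptides in 50 mM HEPES, 5 mM MgCl2, 1 mM CaCl2, 0.2% ovalbumin, pH 7.4, for 2 h at room temperature with shaking. Bound radioactivity was collected by filtration and counted; IC50 from sigmoidal nonlinear regression.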

The subject of assay [2] is normal NMRI mice. Kind of assay: Effect on acute food intake in normal NMRI mice. Conditions: male NMRI mice, 10 nmol/kg subcutaneously once. The assay is classed as in vivo. A digest of the protocol: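 A single 10 nmol/kg s.c. peptide dose was given 1 h before lights-off to male NMRI mice fasted from 6 h before the night phase (n=7-8). Intake was recorded continuously by microchip-identified HM-2 feeding channels. Values are normalized to vehicle controls (50 mM phosphate buffer pH7 with 5% Mannitol).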

In the case of `CC(C)CC(=O)N[C@@H](C)C(=O)N1CCC[C@H]1C(=O)N[C@@H](CCC(=O)O)C(=O)N[C@@H](CCCCNC(=O)COCCOCCNC(=O)COCCOCCNC(=O)CC[C@H](NC(=O)CCCCCCCCCCCCCCCCC(=O)O)C(=O)O)C(=O)N1CCC[C@H]1C(=O)N[C@@H](CCC(=O)O)C(=O)N[C@@H](CCC(=O)O)C(=O)N[C@@H](CCC(=O)O)C(=O)N[C@@H](CO)C(=O)N[C@@H](CO)C(=O)N1CCC[C@H]1C(=O)N[C@@H](CCC(=O)O)C(=O)N[C@@H](CCC(=O)O)C(=O)N[C@@H](CC(C)C)C(=O)N[C@@H](CCC(N)=O)C(=O)N[C@@H](CCCNC(=N)N)C(=O)N[C@@H](Cc1ccc(O)cc1)C(=O)N[C@@H](Cc1ccc(O)cc1)C(=O)N[C@H](C(=O)N[C@@H](CO)C(=O)N[C@@H](CC(C)C)C(=O)N[C@@H](CCCNC(=N)N)C(=O)N[C@@H](Cc1c[nH]cn1)C(=O)N[C@@H](Cc1ccc(O)cc1)C(=O)N[C@@H](Cc1ccc(O)cc1)C(=O)N[C@@H](CC(N)=O)C(=O)N[C@@H](Cc1c[nH]c2ccccc12)C(=O)N[C@@H](CC(C)C)C(=O)N[C@H](C(=O)N[C@@H](CCCNC(=N)N)C(=O)N[C@@H](CCC(N)=O)C(=O)N[C@@H](CCCNC(=N)N)C(=O)N[C@@H](Cc1ccc(O)cc1)C(N)=O)[C@@H](C)O)C(C)C` [Compound 139, N{alpha-4}-(3-methylbutanoyl)-N{epsilon-7}-[2-(2-{2-[2-(2-{2-[(4S)-4-carboxy-4-(17-carboxyheptadecanamido)butanamido]ethoxy}ethoxy)acetamido]ethoxy}ethoxy)acetamido]-[4A,7K,9E,11E,12S,18Q,22V,28Y,30W,31L]hPYY (4-36)] (Isovaleryl-APEK([AEEA-AEEA-γGlu-C18 diacid])PEEESSPEELQRYYVSLRHYYNWLTRQRY-NH2), the Ki in assay [1] was 3.83 nM. The “Acute Food Intake 24 h [% vehicle]” value in assay [2] is recorded as 74 % vehicle.
Consider `CC(C)CC(=O)N[C@@H](C)C(=O)N1CCC[C@H]1C(=O)N[C@@H](CCC(=O)O)C(=O)N[C@@H](CCCCNC(=O)COCCOCCNC(=O)COCCOCCNC(=O)CC[C@H](NC(=O)CCCCCCCCCCCCCCCCC(=O)O)C(=O)O)C(=O)N1CCC[C@H]1C(=O)N[C@@H](CCC(=O)O)C(=O)N[C@@H](CCC(=O)O)C(=O)N[C@@H](CC(=O)O)C(=O)N[C@@H](C)C(=O)N[C@@H](CCC(=O)O)C(=O)N1CCC[C@H]1C(=O)N[C@@H](CCC(=O)O)C(=O)N[C@@H](CCC(=O)O)C(=O)N[C@@H](CC(C)C)C(=O)N[C@@H](CCC(N)=O)C(=O)N[C@@H](CCCCN)C(=O)N[C@@H](Cc1ccc(O)cc1)C(=O)N[C@@H](Cc1ccc(O)cc1)C(=O)N[C@H](C(=O)N[C@@H](CO)C(=O)N[C@@H](CC(C)C)C(=O)N[C@@H](CCCNC(=N)N)C(=O)N[C@@H](Cc1c[nH]cn1)C(=O)N[C@@H](Cc1ccc(O)cc1)C(=O)N[C@@H](Cc1ccc(O)cc1)C(=O)N[C@@H](CC(N)=O)C(=O)N[C@@H](Cc1c[nH]c2ccccc12)C(=O)N[C@@H](CC(C)C)C(=O)N[C@H](C(=O)N[C@@H](CCCNC(=N)N)C(=O)N[C@@H](CCC(N)=O)C(=O)N[C@@H](CCCNC(=N)N)C(=O)N[C@@H](Cc1ccc(O)cc1)C(N)=O)[C@@H](C)O)C(C)C` [Compound 150, N{alpha-4}-(3-methylbutanoyl)-N{epsilon-7}-[2-(2-{2-[2-(2-{2-[(4S)-4-carboxy-4-(17-carboxyheptadecanamido)butanamido]ethoxy}ethoxy)acetamido]ethoxy}ethoxy)acetamido]-[4A,7K,9E,13E,18Q,19K,22V,28Y,30W,31L]hPYY (4-36)], for which the Ki in assay [1] was determined as 2.02 nM. For the same compound, the “Acute Food Intake 24 h [% vehicle]” value in assay [2] was 67 % vehicle.
For `CC(C)CC(=O)N[C@@H](C)C(=O)N1CCC[C@H]1C(=O)N[C@@H](CCC(=O)O)C(=O)N[C@@H](CCCCNC(=O)COCCOCCNC(=O)COCCOCCNC(=O)CC[C@H](NC(=O)CCCCCCCCCCCCCCCCC(=O)O)C(=O)O)C(=O)N1CCC[C@H]1C(=O)N[C@@H](CCC(=O)O)C(=O)N[C@@H](C)C(=O)N[C@@H](CCC(=O)O)C(=O)N[C@@H](C)C(=O)N[C@@H](CO)C(=O)N1CCC[C@H]1C(=O)N[C@@H](CCC(=O)O)C(=O)N[C@@H](CCC(=O)O)C(=O)N[C@@H](CC(C)C)C(=O)N[C@@H](CCC(N)=O)C(=O)N[C@@H](CCCNC(=N)N)C(=O)N[C@@H](Cc1ccc(O)cc1)C(=O)N[C@@H](Cc1ccc(O)cc1)C(=O)N[C@H](C(=O)N[C@@H](CO)C(=O)N[C@@H](CC(C)C)C(=O)N[C@@H](CCCNC(=N)N)C(=O)N[C@@H](Cc1c[nH]cn1)C(=O)N[C@@H](Cc1ccc(O)cc1)C(=O)N[C@@H](Cc1ccc(O)cc1)C(=O)N[C@@H](CC(N)=O)C(=O)N[C@@H](Cc1c[nH]c2ccccc12)C(=O)N[C@@H](CC(C)C)C(=O)N[C@H](C(=O)N[C@@H](CCCNC(=N)N)C(=O)N[C@@H](CCC(N)=O)C(=O)N[C@@H](CCCNC(=N)N)C(=O)N[C@@H](Cc1ccc(O)cc1)C(N)=O)[C@@H](C)O)C(C)C` [Compound 151, N{alpha-4}-(3-methylbutanoyl)-N{epsilon-7}-[2-(2-{2-[2-(2-{2-[(4S)-4-carboxy-4-(17-carboxyheptadecanamido)butanamido]ethoxy}ethoxy)acetamido]ethoxy}ethoxy)acetamido]-[4A,7K,9E,10A,11E,18Q,22V,28Y,30W,31L]hPYY (4-36)], in assay [1], the Ki was determined as 1.43 nM. In addition, the “Acute Food Intake 24 h [% vehicle]” value in assay [2] is 45 % vehicle.
In the same order, the values of `CC(C)CC(=O)N[C@@H](C)C(=O)N1CCC[C@H]1C(=O)N[C@@H](CCC(=O)O)C(=O)N[C@@H](CCCCNC(=O)COCCOCCNC(=O)COCCOCCNC(=O)CC[C@H](NC(=O)CCCCCCCCCCCCCCCCC(=O)O)C(=O)O)C(=O)N1CCC[C@H]1C(=O)N[C@@H](CCC(=O)O)C(=O)N[C@@H](CCC(=O)O)C(=O)N[C@@H](C)C(=O)N[C@@H](C)C(=O)N[C@@H](CO)C(=O)N1CCC[C@H]1C(=O)N[C@@H](CCC(=O)O)C(=O)N[C@@H](CCC(=O)O)C(=O)N[C@@H](CC(C)C)C(=O)N[C@@H](CCC(N)=O)C(=O)N[C@@H](CCCNC(=N)N)C(=O)N[C@@H](Cc1ccc(O)cc1)C(=O)N[C@@H](Cc1ccc(O)cc1)C(=O)N[C@H](C(=O)N[C@@H](C)C(=O)N[C@@H](CC(C)C)C(=O)N[C@@H](CCCNC(=N)N)C(=O)N[C@@H](Cc1c[nH]cn1)C(=O)N[C@@H](Cc1ccc(O)cc1)C(=O)N[C@@H](Cc1ccc(O)cc1)C(=O)N[C@@H](CC(N)=O)C(=O)N[C@@H](Cc1c[nH]c2ccccc12)C(=O)N[C@@H](CC(C)C)C(=O)N[C@H](C(=O)N[C@@H](CCCNC(=N)N)C(=O)N[C@@H](CCC(N)=O)C(=O)N[C@@H](CCCNC(=N)N)C(=O)N[C@@H](Cc1ccc(O)cc1)C(N)=O)[C@@H](C)O)C(C)C` [Compound 163, N{alpha-4}-(3-methylbutanoyl)-N{epsilon-7}-[2-(2-{2-[2-(2-{2-[(4S)-4-carboxy-4-(17-carboxyheptadecanamido)butanamido]ethoxy}ethoxy)acetamido]ethoxy}ethoxy)acetamido]-[4A,7K,9E,11A,18Q,22V,23A,28Y,30W,31L]hPYY (4-36)] are 0.96 nM and 50 % vehicle.
Consider `CC(C)CC(=O)N[C@@H](C)C(=O)N1CCC[C@H]1C(=O)N[C@@H](C)C(=O)N[C@@H](CCCCNC(=O)COCCOCCNC(=O)COCCOCCNC(=O)CC[C@H](NC(=O)CCCCCCCCCCCCCCCCC(=O)O)C(=O)O)C(=O)N1CCC[C@H]1C(=O)N[C@@H](CCC(=O)O)C(=O)N[C@@H](CCC(=O)O)C(=O)N[C@@H](CC(=O)O)C(=O)N[C@@H](C)C(=O)N[C@@H](CO)C(=O)N1CCC[C@H]1C(=O)N[C@@H](CCC(=O)O)C(=O)N[C@@H](CCC(=O)O)C(=O)N[C@@H](CC(C)C)C(=O)N[C@@H](CCC(N)=O)C(=O)N[C@@H](CCCNC(=N)N)C(=O)N[C@@H](Cc1ccc(O)cc1)C(=O)N[C@@H](Cc1ccc(O)cc1)C(=O)N[C@H](C(=O)N[C@@H](CCC(=O)O)C(=O)N[C@@H](CC(C)C)C(=O)N[C@@H](CCCNC(=N)N)C(=O)N[C@@H](Cc1c[nH]cn1)C(=O)N[C@@H](Cc1ccc(O)cc1)C(=O)N[C@@H](Cc1ccc(O)cc1)C(=O)N[C@@H](CC(N)=O)C(=O)N[C@@H](Cc1c[nH]c2ccccc12)C(=O)N[C@@H](CC(C)C)C(=O)N[C@H](C(=O)N[C@@H](CCCNC(=N)N)C(=O)N[C@@H](CCC(N)=O)C(=O)N[C@@H](CCCNC(=N)N)C(=O)N[C@@H](Cc1ccc(O)cc1)C(N)=O)[C@@H](C)O)C(C)C` [Compound 173, N{alpha-4}-(3-methylbutanoyl)-N{epsilon-7}-[2-(2-{2-[2-(2-{2-[(4S)-4-carboxy-4-(17-carboxyheptadecanamido)butanamido]ethoxy}ethoxy)acetamido]ethoxy}ethoxy)acetamido]-[4A,6A,7K,9E,18Q,22V,23E,28Y,30W,31L]hPYY (4-36)], for which, in assay [1], the Ki is 1.71 nM. The “Acute Food Intake 24 h [% vehicle]” value in assay [2] is 49 % vehicle.
